Measured values as given in US11001570B2, “6-amino-quinolinone compounds and derivatives as BCL6 inhibitors” (Boehringer Ingelheim International GmbH, priority 2016, dated 2021).

biological target: T1, BCL6::BCOR (Homo sapiens, UniProt P41182, C67R/C84N/C8Q); assay: BCL6::BCOR ULight TR-FRET assay; assay type: binding
T1 construct: BCL6 (amino acids 5 to 129, with the following changes to the natural protein); made in house; host or cells: E. coli
Procedure, shortened: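 Biotin-Avi BCL6 (aa 5–129, C8Q/C67R/C84N; E. coli), 1 nM, preincubated 30 min RT with compound (11-point fivefold series, top 100 μM) in HEPES pH 7.3 buffer; then 100 nM ULight-BCOR peptide plus 0.75 nM streptavidin-Eu added, 240 min RT. TR-FRET read, normalized to DMSO controls with/without BCL6.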

SMILES	IC50
CNC(=O)COc1cc2cc(Nc3nc(N4C[C@H](C)C[C@H](C)C4)ncc3Cl)cnc2n(C)c1=O [Compound I-155]	9 nM
CNC(=O)COc1cc2cc(Nc3nc(N4CCC(C(=O)N(C)C)CC4)ncc3Cl)c(F)cc2n(C)c1=O [Compound I-156]	19 nM
CNC(=O)COc1cc2cc(Nc3nc(N4CCC(C(=O)N(C)C)CC4)ncc3Cl)ccc2n(C)c1=O [Compound I-157]	5 nM
CNC(=O)COc1cc2cc(Nc3nc(N4CCC(C(=O)N(C)C)CC4)ncc3Cl)ccc2n(C(C)C)c1=O [Compound I-158]	6 nM
CNC(=O)COc1cc2cc(Nc3nc(N4C[C@H](C)C[C@H](C)C4)ncc3Cl)ccc2n(CCN(C)C)c1=O [Compound I-159]	85 nM
CCn1c(=O)c(OCC(=O)NC)cc2cc(Nc3nc(-n4nc(C)cc4C)ncc3Cl)ccc21 [Compound I-160]	7 nM
CCn1c(=O)c(OCC(=O)NC)cc2cc(Nc3nc(N4CCC(C(=O)N(C)C)CC4)ncc3Cl)ccc21 [Compound I-161]	5 nM
CNC(=O)[C@@H](C)Oc1cc2cc(Nc3nc(N4CCC(C(=O)N(C)C)CC4)ncc3Cl)ccc2n(C)c1=O [Compound I-162]	98 nM
CNC(=O)COc1cc2cc(Nc3nc(N4CCC(C(=O)N(C)C)CC4)ncc3Cl)c(OC)cc2n(C)c1=O [Compound I-163]	60 nM
CNC(=O)COc1cc2cc(Nc3nc(N4CCC(C(=O)N(C)C)CC4)ncc3Cl)c(Cl)cc2n(C)c1=O [Compound I-164]	281 nM
C[C@@H]1C[C@H](C)CN(c2ncc(Cl)c(Nc3ccc4c(c3)cc(/C=C/C(=O)O)c(=O)n4C)n2)C1 [Compound I-165]	22 nM
CNC(=O)COc1cc2cc(Nc3nc(-n4nc(C(=O)N5CCN(C)CC5)cc4C)ncc3Cl)ccc2n(C)c1=O [Compound I-166, 2-{[6-({5-chloro-2-[5-methyl-3-(4-methylpiperazine-1-carbonyl)-1H-pyrazol-1-yl]pyrimidin-4-yl}amino)-1-methyl-2-oxo-1,2-dihydroquinolin-3-yl]oxy}-N-methylacetamide]	16 nM
CNC(=O)COc1cc2cc(Nc3nc(N4CCC[C@@H](C(=O)O)C4)ncc3Cl)ccc2n(C)c1=O [Compound I-167, (3R)-1-[5-chloro-4-({1-methyl-3-[(methylcarbamoyl)methoxy]-2-oxo-1,2-dihydroquinolin-6-yl}-amino)pyrimidin-2-yl]piperidine-3-carboxylic acid]	4 nM
CNC(=O)COc1cc2cc(Nc3nc(N4CCC[C@@H](C(=O)N(C)C)C4)ncc3Cl)ccc2n(C)c1=O [Compound I-168, (3R)-1-[5-chloro-4-({1-methyl-3-[(methylcarbamoyl)methoxy]-2-oxo-1,2-dihydroquinolin-6-yl}amino)pyrimidin-2-yl]-N,N-dimethylpiperidine-3-carboxamide]	6 nM
CNC(=O)COc1cc2cc(Nc3nc(N4CCC[C@@H](C(=O)N5CCN(C)CC5)C4)ncc3Cl)ccc2n(C)c1=O [Compound I-169]	6 nM
CNC(=O)COc1cc2cc(Nc3nc(N4CCC[C@@H](C(=O)N(C)C5CCN(C)CC5)C4)ncc3Cl)ccc2n(C)c1=O [Compound I-170]	8 nM
CN(C)C(=O)COc1cc2cc(Nc3nc(N4CCC(C(=O)N(C)C)CC4)ncc3Cl)ccc2n(C)c1=O [Compound I-171]	39 nM
C[C@@H]1C[C@H](C)CN(c2ncc(Cl)c(Nc3ccc4c(c3)cc(OCP(C)(C)=O)c(=O)n4C)n2)C1 [Compound I-172, 6-({5-chloro-2-[cis-3,5-dimethylpiperidin-1-yl]pyrimidin-4-yl}amino)-3-[(dimethylphosphoryl)-methoxy]-1-methyl-1,2-dihydroquinolin-2-one]	187 nM
C#CCNC(=O)COc1cc2cc(Nc3nc(N4CCC(C(=O)N(C)C)CC4)ncc3Cl)ccc2n(C)c1=O [Compound I-175]	10 nM
C[C@@H]1C[C@H](C)CN(c2ccc(Cl)c(Nc3ccc4c(c3)cc(OCC(=O)O)c(=O)n4C)n2)C1 [Compound I-176, 2-{[6-({3-chloro-6-[cis-3,5-dimethylpiperidin-1-yl]pyridin-2-yl}amino)-1-methyl-2-oxo-1,2-dihydroquinolin-3-yl]oxy}acetic acid]	106 nM
CNC(=O)COc1cc2cc(Nc3nc(N4C[C@H](C)C[C@H](C)C4)ccc3Cl)ccc2n(C)c1=O [Compound I-177, 2-{[6-({3-chloro-6-[cis-3,5-dimethylpiperidin-1-yl]pyridin-2-yl}amino)-1-methyl-2-oxo-1,2-dihydroquinolin-3-yl]oxy}-N-methylacetamide]	87 nM
CNC(=O)COc1cc2cc(Nc3cc(N4C[C@H](C)C[C@H](C)C4)ncc3Cl)ccc2n(C)c1=O [Compound I-178, 2-{[6-({5-chloro-2-[cis-3,5-dimethylpiperidin-1-yl]pyridin-4-yl}amino)-1-methyl-2-oxo-1,2-dihydroquinolin-3-yl]oxy}-N-methylacetamide]	22 nM
